For data set [1], the system named is VERO cells (ATCC CRL-81). The data set is described as follows: Vero cell toxicity. In kind it is cell-based. The following applies: 72 hours exposure. The procedure: Cytotoxicity for a mammalian cell line was determined by exposing VERO cells (ATCC CRL-81) to serial dilutions of test compounds for 72 hours, followed by addition of resazurin and measurement of fluorescence after 4 hours incubation (Choules, et al., Antimnicrob. Agents Chemother. 2019, 63, e02204-02218).

The test system of data set [2] is MTB H37Rv ATCC 27294. The data set is described as follows: MIC, microplate Alamar Blue assay (MABA). In kind it is cell-based, Mycobacterium tuberculosis. The following applies: for MIC90 / MIC: MTB H37Rv ATCC 27294, microplate Alamar Blue assay, lowest concentration giving ≥90% reduction in fluorescence; for MIC: read-out: MIC90 MABA. (In general: Alamar Blue is a resazurin reagent that responds to reducing activity.)

In data set [3] the test system is DPX2 cells. To be noted: for DPX2 Viability @ 6.25 μM: 24 h; for DPX2 Viability @ 25 μM: human.

≈ marks a conversion by molar mass, not a printed value.

Ten compounds from patent publication US20250188092A1, “RIFAMYCIN ANALOGS” (THE REGENTS OF THE UNIVERSITY OF MICHIGAN, priority 2021, published 2025) can be followed below.

In general, IC50 refers to the midpoint of a concentration-inhibition curve. Low values mean greater potency, high ones weaker potency. Usually MIC90 stands for an inhibitory concentration at the 90% level, which refers to growth in some studies and to a panel of isolates in others.

`CO[C@H]1/C=C/O[C@@]2(C)Oc3c(C)c(O)c4c(=O)c(c5oc6cccc(OCc7ccc(CN8CCOCC8)cc7)c6nc-5c4c3C2=O)NC(=O)/C(C)=C\C=C\[C@H](C)[C@H](O)[C@@H](C)[C@@H](O)[C@@H](C)[C@H](OC(C)=O)[C@@H]1C` [Compound 16d, (7S,9E,11S,12R,13S,14R,15R,16R,17S,18S,19E,21Z)-2,15,17-Trihydroxy-11-methoxy-3,7,12,14,16,18,22-heptamethyl-32-({4-[(morpholin-4-yl)methyl]phenyl}methoxy)-6,23,37-trioxo-8,27,38-trioxa-24,34-diazahexacyclo[23.11.1.1^4,7.0^5,36.0^26,35.0^28,33]octatriaconta-1(36)2,4,9,19,21,25,28,30,32,34-undecaen-13-yl acetate] yielded an IC50 in data set [1] (Chlorocebus sabaeus, Vero) of more than 10 µM. Besides, in data set [2], the “MIC90 MABA Rel to RMP” value is 0.07. In data set [2] (Mycobacterium tuberculosis), this compound yielded an MIC90 of 0.0037 µM. For the same compound, in data set [3], the “DPX2 Viability @ 6.25 μM” value stood at 79% and the “DPX2 Viability @ 25 μM” value was determined as 59%.
The matching figures for `CO[C@H]1/C=C/O[C@@]2(C)Oc3c(C)c(O)c4c(=O)c(c5oc6cccc(OCc7ccc(CN8CCN(C)CC8)cc7)c6nc-5c4c3C2=O)NC(=O)/C(C)=C\C=C\[C@H](C)[C@H](O)[C@@H](C)[C@@H](O)[C@@H](C)[C@H](OC(C)=O)[C@@H]1C` [Compound 16e, (7S,9E,11S,12R,13S,14R,15R,16R,17S,18S,19E,21Z)-2,15,17-trihydroxy-11-methoxy-3,7,12,14,16,18,22-heptamethyl-32-({4-[(4-methylpiperazin-1-yl)methyl]phenyl}methoxy)-6,23,37-trioxo-8,27,38-trioxa-24,34-diazahexacyclo[23.11.1.1^4,7.0^5,36.0^26,35.0^28,33]octatriaconta-1,3,5(36)9,19,21,25,28,30,32,34-undecaen-13-yl acetate]: more than 10 µM, 0.16, 0.0064 µM, 63% and 41%.
Turning to `CO[C@H]1/C=C/O[C@@]2(C)Oc3c(C)c(O)c4c(=O)c(c5oc6cc(N7CCN(C(=O)C(C)(C)C)CC7)cc(OCc7ccc(CN8CCOCC8)cc7)c6nc-5c4c3C2=O)NC(=O)/C(C)=C\C=C\[C@H](C)[C@H](O)[C@@H](C)[C@@H](O)[C@@H](C)[C@H](OC(C)=O)[C@@H]1C` [Compound 17f, (7S,9E,11S,12R,13S,14R,15R,16R,17S,18S,19E,21Z)-30-[4-(2,2-Dimethylpropanoyl)-piperazin-1-yl]-2,15,17-trihydroxy-11-methoxy-3,7,12,14,16,18,22-heptamethyl-32-({4-[(morpholin-4-yl)methyl]phenyl}methoxy)-6,23,37-trioxo-8,27,38-trioxa-24,34-diazahexacyclo[23.11.1.1^4,7.0^5,36.0^26,35.0^28,33]octatriaconta-1(36)2,4,9,19,21,25,28,30,32,34-undecaen-13-yl acetate], in data set [1] (Chlorocebus sabaeus, Vero), the IC50 is more than 10 µM. Moreover, the “MIC90 MABA Rel to RMP” value in data set [2] is recorded as 1.0. Further, in data set [2] (Mycobacterium tuberculosis), the MIC was 0.027 µM. Also, in data set [3], the “DPX2 Viability @ 6.25 μM” value came to 85% and the “DPX2 Viability @ 25 μM” value came out at 71%.
In the case of `CCC(=O)N1CCN(c2cc(OCc3ccc(CN4CCOCC4)cc3)c3nc4c5c6c7c(C)c(O)c5c(=O)c(c-4oc3c2)NC(=O)/C(C)=C\C=C\[C@H](C)[C@H](O)[C@@H](C)[C@@H](O)[C@@H](C)[C@H](OC(C)=O)[C@H](C)[C@@H](OC)/C=C/O[C@@](C)(O7)C6=O)CC1` [Compound 17g, (7S,9E,11S,12R,13S,14R,15R,16R,17S,18S,19E,21Z)-2,15,17-Trihydroxy-11-methoxy-3,7,12,14,16,18,22-heptamethyl-32-({4-[(morpholin-4-yl)methyl]phenyl}methoxy)-6,23,37-trioxo-30-(4-propanoylpiperazin-1-yl)-8,27,38-trioxa-24,34-diazahexacyclo-[23.11.1.1^4,7.0^5,36.0^26,35.0^28,33]octatriaconta-1(36)2,4,9,19,21,25,28,30,32,34-undecaen-13-yl acetate], the IC50 in data set [1] (Chlorocebus sabaeus, Vero) is more than 10 µM. Also, the “MIC90 MABA Rel to RMP” value in data set [2] is 0.4. In data set [2] (Mycobacterium tuberculosis), this compound showed an MIC90 of 0.012 µM. In data set [3], the “DPX2 Viability @ 6.25 μM” value is reported as 117% and the “DPX2 Viability @ 25 μM” value is 56%.
The matching figures for `CO[C@H]1/C=C/O[C@@]2(C)Oc3c(C)c(O)c4c(=O)c(c5oc6cc(N7CCN(C8CCN(C)CC8)CC7)cc(OCc7ccc(CN8CCOCC8)cc7)c6nc-5c4c3C2=O)NC(=O)/C(C)=C\C=C\[C@H](C)[C@H](O)[C@@H](C)[C@@H](O)[C@@H](C)[C@H](OC(C)=O)[C@@H]1C` [Compound 17h, (7S,9E,11S,12R,13S,14R,15R,16R,17S,18S,19E,21Z)-2,15,17-trihydroxy-11-methoxy-3,7,12,14,16,18,22-heptamethyl-30-[4-(1-methylpiperidin-4-yl)piperazin-1-yl]-32-{[4-(morpholin-4-ylmethyl)phenyl]methoxy}-6,23,37-trioxo-8,27,38-trioxa-24,34-diazahexacyclo-[23.11.1.1^4,7.0^5,36.0^26,35.0^28,33]octatriaconta-1,3,5(36)9,19,21,25,28,30,32,34-undecaen-13-yl acetate]: more than 10 µM, 1.3, 0.035 µM, 94% and 83%.
In data set [1] (Chlorocebus sabaeus, Vero), `CO[C@H]1/C=C/O[C@@]2(C)Oc3c(C)c(O)c4c(=O)c(c5oc6cc(N7CCN(CC(=O)O)CC7)cc(OCc7ccc(CN8CCOCC8)cc7)c6nc-5c4c3C2=O)NC(=O)/C(C)=C\C=C\[C@H](C)[C@H](O)[C@@H](C)[C@@H](O)[C@@H](C)[C@H](OC(C)=O)[C@@H]1C` [Compound 17i] registered an IC50 of more than 10 µM. Also, the “MIC90 MABA Rel to RMP” value in data set [2] was 1.0. Besides, the MIC in data set [2] (Mycobacterium tuberculosis) turned out to be 0.026 µM (≈ 0.0294 µg/mL). Moreover, in data set [3], the “DPX2 Viability @ 6.25 μM” value amounted to 106% and the “DPX2 Viability @ 25 μM” value worked out at 100%.
`CO[C@H]1/C=C/O[C@@]2(C)Oc3c(C)c(O)c4c(=O)c(c5oc6cc(N7CCS(=O)(=O)CC7)cc(OCc7ccc(CN8CCOCC8)cc7)c6nc-5c4c3C2=O)NC(=O)/C(C)=C\C=C\[C@H](C)[C@H](O)[C@@H](C)[C@@H](O)[C@@H](C)[C@H](OC(C)=O)[C@@H]1C` [Compound 17j, (7S,9E,11S,12R,13S,14R,15R,16R,17S,18S,19E,21Z)-30-(1,1-dioxothiomorpholin-4-yl)-2,15,17-trihydroxy-11-methoxy-3,7,12,14,16,18,22-heptamethyl-32-([4-(morpholin-4-ylmethyl)phenyl]methoxy)-6,23,37-trioxo-8,27,38-trioxa-24,34-diazahexacyclo-[23.11.1.1^4,7.0^5,36.0^26,35.0^28,33]octatriaconta-1,3,5(36)9,19,21,25,28,30,32,34-undecaen-13-yl acetate] displayed an IC50 in data set [1] (Chlorocebus sabaeus, Vero) of more than 10 µM. Moreover, in data set [2] (Mycobacterium tuberculosis), the MIC is more than 0.01 µM. For the same compound, in data set [3], the “DPX2 Viability @ 6.25 μM” value was found to be 2% and the “DPX2 Viability @ 25 μM” value stood at 126%.
With `CO[C@H]1/C=C/O[C@@]2(C)Oc3c(C)c(O)c4c(=O)c(c5oc6cc(N7CCC(C(=O)O)CC7)cc(OCc7ccc(CN8CCOCC8)cc7)c6nc-5c4c3C2=O)NC(=O)/C(C)=C\C=C\[C@H](C)[C@H](O)[C@@H](C)[C@@H](O)[C@@H](C)[C@H](OC(C)=O)[C@@H]1C` [Compound 17k], the IC50 in data set [1] (Chlorocebus sabaeus, Vero) was more than 10 µM. Besides, the “MIC90 MABA Rel to RMP” value in data set [2] is reported as 11. In addition, the MIC in data set [2] (Mycobacterium tuberculosis) was 0.3 µM (≈ 0.335 µg/mL). Moreover, in data set [3], the “DPX2 Viability @ 6.25 μM” value was 131% and the “DPX2 Viability @ 25 μM” value is 34%.
`CO[C@H]1/C=C/O[C@@]2(C)Oc3c(C)c(O)c4c(=O)c(c5oc6cc(C=O)cc(N7CCN(C)CC7)c6nc-5c4c3C2=O)NC(=O)/C(C)=C\C=C\[C@H](C)[C@H](O)[C@@H](C)[C@@H](O)[C@@H](C)[C@H](OC(C)=O)[C@@H]1C` [Compound 30b, (7S,9E,11S,12R,13S,14R,15R,16R,17S,18S,19E,21Z)-30-Formyl-2,15,17-trihydroxy-11-methoxy-3,7,12,14,16,18,22-heptamethyl-32-(4-methylpiperazin-1-yl)-6,23,37-trioxo-8,27,38-trioxa-24,34-diazahexacyclo[23.11.1.1^4,7.0^5,36.0^26,35.0^28,33]octatriaconta-1(36)2,4,9,19,21,25,28,30,32,34-undecaen-13-yl acetate] displayed a concentration for half-maximal inhibition (IC50) in data set [1] of more than 8 µM. In data set [2], the “MIC90 MABA Rel to RMP” value turned out to be 1.37 and the MIC90 was 0.037 µM.
For the compound `CO[C@H]1/C=C/O[C@@]2(C)Oc3c(C)c(O)c4c(=O)c(c5oc6cc(C=O)cc(N7CCN(CC(C)C)CC7)c6nc-5c4c3C2=O)NC(=O)/C(C)=C\C=C\[C@H](C)[C@H](O)[C@@H](C)[C@@H](O)[C@@H](C)[C@H](OC(C)=O)[C@@H]1C` [Compound 30d, (7S,9E,11S,12R,13S,14R,15R,16R,17S,1S,19E,21Z)-30-Formyl-2,15,17-trihydroxy-11-methoxy-3,7,12,14,16,18,22-heptamethyl-32-[4-(2-methylpropyl)piperazin-1-yl]-6,23,37-trioxo-8,27,38-trioxa-24,34-diazahexacyclo[23.11.1.1^4,7.0^5,36.0^26,35.0^28,33]octatriaconta-1(36)2,4,9,19,21,25,28,30,32,34-undecaen-13-yl acetate], the half-maximal inhibitory concentration (IC50) in data set [1] is more than 8 µM. Also, in data set [2], the “MIC90 MABA Rel to RMP” value is less than 0.6 and the MIC90 was less than 0.016 µM.
